Holding throughout (type): cell-based, human
In experiment [1] the test system is PBMC. In words: IFN-γ ELISpot on PBMC of CD patients after 3-day barley challenge. The conditions noted are these: after barley challenge. From the text:
(§1) Australian Caucasian HLA-DQ2.5^+ and/or HLA-DQ8^+ CD subjects were recruited by advertisement in the Coeliac Society of Victoria newsletter and all had biopsy-proven CD conforming to ESPGHAN criteria. Patients had been on strict gluten free diet for at least 4 weeks prior to commencing grain challenge. Patients underwent 3-day grain challenge with oats, barley, or combined wheat, barley, and rye muffins, and 6 days after commencement, blood was collected. Day 0 responses were not observed in the selection of patients tested, as described previously^8.
(§2) Oats challenge consisted of 100 g dry weight daily of one of three commercial brands of oats: one not tested for wheat contamination (Uncle Toby's; Oats #1), and two shown by R5 ELISA to contain less than 20 ppm wheat gluten (Tilquhilie Pudding; Oats #2 and Freedom Food; Oats #3). Barley challenge consisted of pearl barley (Ward McKenzie) cooked into a risotto (150 g dry weight daily) and the wheat challenge consisted of four 50 g slices of wheat bread daily (Baker's Delight white loaf cut to toasting thickness). The combined wheat, barley, and rye challenge consisted of muffins baked with wheat flour (White Wings), barley flour (Four Leaf Milling), and rye flour (Four Leaf Milling; 22-25 g dry weight each daily). A symptom diary based on a […] Likert scale was completed by participants daily from baseline until day 6.
(§3) Two avenin peptide libraries were utilized for epitope screening. These were designed using avenin sequences from GenBank and a customized algorithm, as previously described^9. The initial library consisted of 199 screening-grade 20 mers including all possible 12 mers (Mimotopes). This library was screened with and without tTG pre-treatment. The second library consisted of additional avenin sequences that were synthesized with glutamate substitution at sites predicted to be deamidated by published algorithms^10, 11 removing the requirement for tTG treatment. This library contained 369 screening-grade 20 mers, including all possible 12 mers (Pepscan). The second round avenin library contained wild-type and deamidated versions of the most immunogenic sequences (25 high quality 16 mers from Mimotopes). High quality peptides containing previously described immunogenic sequences from wheat, barley, and rye were used to test for cross-reactivity^8 (Pepscan). High quality hordein and avenin peptides for TCC testing and biochemical studies were ordered from Pepscan, Mimotopes, or GL Biochem.
(§4) Peripheral blood mononuclear cells (PBMC) were isolated from heparinized whole blood using Ficoll-Paque™ Plus density-gradient centrifugation (GE Healthcare). IFN-γ ELISpot (Mabtech) was set up as previously described^8.

Experiment [2] relates to PBMC. In words: IFN-γ ELISpot on PBMC of CD patients on day 6 after 3-day oats challenge. The conditions noted are these: after 3-day oats challenge.
Description: as §1, §2, §3, §4

The next experiment relates to Patient 2 TCC-01. In words: IFN-γ ELISpot with T cell clone. The following applies: TCC Patient 2 TCC-01 (Table 5); mean no antigen 1.1. As for the experimental part: as §4
(§5) Isolation of TCC from CD patients was carried out as previously described^8. Briefly, CFSE-labeled PBMC were incubated with antigen for 7 days in IMDM supplemented with 5% heat-inactivated pooled human serum (PHS), 2 mM GlutaMAX™, 100 μM MEM non-essential amino acids (both from Gibco, Invitrogen), and 50 μM 2-mercaptoethanol (Sigma). Proliferated cells were single-cell sorted into 96-well plates containing IL-2, IL-4, anti-CD3 mAb, irradiated feeder cells (allogeneic PBMC and JY-EBV). TCC were expanded and maintained in IL-2 and IL-4 and tested for specificity by ELISpot with irradiated HLA-matched PBMC as antigen-presenting cells. Expanded clones were tested for HLA-DQ restriction, TCR Vbeta usage, and with lysine scans to work out minimal epitopes. See Table 1 below for TCC and epitope information.

For the next experiment, the system named is Patient 6 TCC-01. In words: IFN-γ ELISpot with T cell clone. The following applies: TCC Patient 6 TCC-01 (Table 5); mean no antigen 2. The method, then: as §4, §5
Another experiment has as its system Patient 14 TCC-01. In words: IFN-γ ELISpot with T cell clone. The following applies: TCC Patient 14 TCC-01 (Table 5); mean no antigen 11.3, high background, SFU >25 considered as positive responses. As for the experimental part:
as §4, §5

From patent US20160238590A1, “COMPOSITIONS AND METHODS RELATED TO OAT SENSITIVITY” (IMMUSANT, INC., priority 2013, published 2016) come the findings set out here.

For the sequence “AQFDPSEQYQPYPEQQQPIL [avenin library peptide]”, the “IFN-γ ELISpot response (raw SFU)” value in the experiment on PBMC [1] (Patient 1, peptide 50 μg/ml) stood at 35 SFU; in the experiment with PBMC [1] (Patient 2, peptide 50 μg/ml) it was 159 SFU; with PBMC [1] (Patient 3, peptide 50 μg/ml), 24 SFU. Further, the “significant SFU as a percentage of maximal peptide SFU” value (“significant SFU as a percentage” below) was “^^ (^^: 10-20%)” with PBMC [1] (Patient 1, peptide 50 μg/ml); “*** (***: >70%)” with PBMC [1] (Patient 2, peptide 50 μg/ml); “^^ (^^: 10-20%)” in the experiment with PBMC [1] (Patient 3, peptide 50 μg/ml).

Regarding “EQYQPYPEEQPFMQPL [partially deamidated avenin peptide]”, the “IFN-γ ELISpot response (raw SFU)” value in the experiment on PBMC [2] (patient P1, peptide 1 μg/ml) is recorded as 1 SFU; with PBMC [2] (patient P1, peptide 10 μg/ml), 1 SFU; in the experiment with PBMC [2] (patient P1, peptide 100 μg/ml) it was 2 SFU; with PBMC [2] (patient P2, peptide 1 μg/ml), 2 SFU; with PBMC [2] (patient P2, peptide 10 μg/ml), 0 SFU; in the experiment on PBMC [2] (patient P2, peptide 100 μg/ml), 27 SFU. For the same sequence, the “IFN-γ ELISpot response (raw SFU)” value amounted to 0 SFU in the experiment with PBMC [2] (patient P3, peptide 1 μg/ml); 2 SFU with PBMC [2] (patient P3, peptide 10 μg/ml); 2 SFU in the experiment on PBMC [2] (patient P3, peptide 100 μg/ml); 0 SFU in the experiment on PBMC [2] (patient P11, peptide 1 μg/ml); 0 SFU in the experiment with PBMC [2] (patient P11, peptide 10 μg/ml); 1 SFU in the experiment on PBMC [2] (patient P11, peptide 100 μg/ml). Also, the “IFN-γ ELISpot response (raw SFU)” value in the experiment on PBMC [2] (patient P12, peptide 1 μg/ml) was 0 SFU; in the experiment with PBMC [2] (patient P12, peptide 10 μg/ml), 0 SFU; in the experiment on PBMC [2] (patient P12, peptide 100 μg/ml), 0 SFU; in the experiment with PBMC [2] (patient P13, peptide 50 μg/ml), 0 SFU. The “significant SFU as a percentage” value in the experiment with PBMC [2] (patient P2, peptide 100 μg/ml) is listed as “** (**: 40-70%)”.

With “EQYQPYPEQEQPFVQQQPPF [avenin library peptide]”, the “IFN-γ ELISpot response (raw SFU)” value in the experiment with PBMC [1] (Patient 1, peptide 50 μg/ml) is reported as 99 SFU; in the experiment with PBMC [1] (Patient 2, peptide 50 μg/ml), 192 SFU; with PBMC [1] (Patient 3, peptide 50 μg/ml) it was 14 SFU; in the experiment on Patient 2 TCC-01, 283 SFU; in the experiment on Patient 6 TCC-01, 30 SFU. In addition, the “significant SFU as a percentage” value is listed as “* (*: 20-40%)” in the experiment with PBMC [1] (Patient 1, peptide 50 μg/ml); “*** (***: >70%)” in the experiment with PBMC [1] (Patient 2, peptide 50 μg/ml); “(^: 5-10%)” with PBMC [1] (Patient 3, peptide 50 μg/ml).

With EQYQPYPEQQPFMQPL [avenin peptide], the “IFN-γ ELISpot response (raw SFU)” value in the experiment with PBMC [2] (patient P1, peptide 1 μg/ml) is given as 0 SFU; in the experiment on PBMC [2] (patient P1, peptide 10 μg/ml), 0 SFU; with PBMC [2] (patient P1, peptide 100 μg/ml) it was 4 SFU; in the experiment on PBMC [2] (patient P2, peptide 1 μg/ml), 0 SFU; in the experiment with PBMC [2] (patient P2, peptide 10 μg/ml), 3 SFU; in the experiment with PBMC [2] (patient P2, peptide 100 μg/ml), 49 SFU. Besides, the “IFN-γ ELISpot response (raw SFU)” value was 3 SFU in the experiment with PBMC [2] (patient P3, peptide 1 μg/ml); 18 SFU in the experiment on PBMC [2] (patient P3, peptide 10 μg/ml); 5 SFU in the experiment with PBMC [2] (patient P3, peptide 100 μg/ml); 3 SFU with PBMC [2] (patient P11, peptide 1 μg/ml); 0 SFU in the experiment on PBMC [2] (patient P11, peptide 10 μg/ml); 54 SFU in the experiment on PBMC [2] (patient P11, peptide 100 μg/ml). Further, the “IFN-γ ELISpot response (raw SFU)” value with PBMC [2] (patient P12, peptide 1 μg/ml) came to 0 SFU; in the experiment on PBMC [2] (patient P12, peptide 10 μg/ml) it was 2 SFU; with PBMC [2] (patient P12, peptide 100 μg/ml) it was 31 SFU; in the experiment with PBMC [2] (patient P13, peptide 50 μg/ml) it was 0 SFU; in the experiment on PBMC [1] (Patient 1, peptide 50 μg/ml), 19 SFU; with PBMC [1] (Patient 2, peptide 50 μg/ml), 25 SFU. Further, the “IFN-γ ELISpot response (raw SFU)” value in the experiment with PBMC [1] (Patient 3, peptide 50 μg/ml) was 33 SFU. For the same sequence, the “significant SFU as a percentage” value was “*** (***: >70%)” in the experiment on PBMC [2] (patient P2, peptide 100 μg/ml); “* (*: 20-40%)” in the experiment on PBMC [2] (patient P3, peptide 10 μg/ml); “*** (***: >70%)” in the experiment on PBMC [2] (patient P11, peptide 100 μg/ml); “** (**: 40-70%)” in the experiment with PBMC [2] (patient P12, peptide 100 μg/ml); “(^: 5-10%)” with PBMC [1] (Patient 1, peptide 50 μg/ml); “^^ (^^: 10-20%)” in the experiment on PBMC [1] (Patient 2, peptide 50 μg/ml). The “significant SFU as a percentage” value with PBMC [1] (Patient 3, peptide 50 μg/ml) was “* (*: 20-40%)”.

Regarding “EQYQPYPEQQQPFLQQQPLE [avenin library peptide]”, the “IFN-γ ELISpot response (raw SFU)” value in the experiment on PBMC [1] (Patient 1, peptide 50 μg/ml) was determined as 25 SFU; with PBMC [1] (Patient 2, peptide 50 μg/ml) it was 196 SFU; in the experiment on PBMC [1] (Patient 3, peptide 50 μg/ml), 24 SFU. In addition, the “significant SFU as a percentage” value in the experiment with PBMC [1] (Patient 1, peptide 50 μg/ml) is “(^: 5-10%)”; with PBMC [1] (Patient 2, peptide 50 μg/ml) it was “*** (***: >70%)”; in the experiment with PBMC [1] (Patient 3, peptide 50 μg/ml) it was “^^ (^^: 10-20%)”.

For the sequence “FPEQPIPEQPQPYP [barley peptide, 1103203A (30-43) [Q232 to E, Q37 to E]]”, the “IFN-γ ELISpot response (raw SFU)” value in the experiment with Patient 14 TCC-01 is recorded as 66 SFU; in the experiment with Patient 2 TCC-01 it was 1 SFU; in the experiment with Patient 6 TCC-01 it was 92 SFU.
